Test results as given in publication PMC11438102, “Modulation of cannabinoid receptor 2 alters neuroinflammation and reduces formation of alpha-synuclein aggregates in a rat model of nigral synucleinopathy” (Journal of Neuroinflammation, 2024).
“Also recorded” adds a separate entry of the source.

Tests used:
PBMCs = assay: Multicolor flow cytometry of PBMCs (high cohort); assay type: in vivo, rat
Procedure: An additional cohort of rats (termed “high cohort”) was evaluated to determine effects of SMM-189 on immune cell populations in the brain, resident or infiltrating, and the periphery as measured by flow cytometry (Fig. 1). To ensure infiltrating peripheral immune cells, rats were stereotaxically injected with a higher titer of AAV2/5-human WT Asyn (4.6 × 10^12 vg/mL) and underwent an identical drug treatment timeline with animals sacrificed at 4 (SMM-189: n = 5; vehicle: n = 6) and 8 weeks (SMM-189: n = 7; vehicle: n = 7). At sacrifice, animals were deeply anesthetized with euthasol (i.p., 150 mg/kg) and rapid decapitation performed using a sharp guillotine. Brains were collected at endpoints, and brain immune cells isolated and evaluated using multicolor flow cytometry. Additionally, blood was collected at baseline, 4 and 8 weeks (SMM-189: n = 13; vehicle: n = 13) after stereotaxic surgery for PBMCs isolation to immunophenotype using flow cytometry and for plasma evaluation of SMM-189.
(§1) PBMCs were isolated from blood of low cohort rats at euthanasia (8 weeks) for qPCR analysis of immune genes and from blood of high cohort rats at baseline, 4 and 8 weeks after AAV2/5-human WT Asyn and evaluated with flow cytometry for a longitudinal immunophenotype assessment. Red blood cells were lysed using 1x RBC lysis buffer (Biolegend Cat#420301) for 5 min in the dark. Lysis buffer was neutralized by adding 1x HBSS (Gibco Cat#14175095). Cells were pelleted by centrifugation at 400g for 5 min, supernatant removed, and cells washed with HBSS. For the high cohort, cells were resuspended in 200μL of PBS and transferred to a 96-well v-bottom plate for flow cytometry staining. For low cohort, 10,000 cells were lysed in 600μL RLT lysis buffer (Qiagen Cat#79216) + 1% BME, further homogenized by centrifugation through a QiaShredder column (2 min at 21,130g). Lysate was then stored at -80°C and later processed for RNA extraction.
Peripheral and central immune cell staining was performed similarly as previously published protocols. In brief, immune cells were washed and resuspended in PBS, then incubated for 30 min at room temperature in LIVE/DEAD Fixable Red Dead cell stain (ThermoFisher Scientific Cat#L23102; 1:2000). Following two washes in PBS, Fc receptors were blocked with anti-rat CD32 Fc block diluted 1:100 in FACS buffer (1mM EDTA and 0.1% sodium azide in PBS) for 15 min at 4°C. PBMCs were stained for separate myeloid and lymphoid panels and brain immune cells stained with an antibody panel to identify microglia, monocytes and lymphocytes (Table S1-S3). Fluorophore conjugated antibodies diluted with FACS buffer were incubated at 4 °C for 20 min. Cells stained for surface myeloid markers were fixed in 1% PFA for 25 min and washed in FACS.
PBMCs stained with lymphoid panel were further probed intracellularly for transcriptional marker Foxp3 to label […] T cells. […] Then washed and resuspended in FACs buffer. All samples had 10uL of AccuCheck Counting beads (ThermoFisher Cat#PCB100) added to final suspension and cells were run on a LSRII Instrument (BD Biosciences, Franklin Lakes, NJ) with FACSDiva software (BD Biosciences). Results were analyzed using FlowJo 10.8.1 software and brain immune populations of monocytes (classical and non-classical), lymphocytes (CD4 + and CD8+) or microglia and PBMC populations defined by specific strategies (Figure S1-S3).
For PBMC analysis, raw frequencies were normalized across serial runs against vehicle-treated values using the following equation: Raw frequency / (average vehicle frequencies of specific run / average baseline frequencies). For brain immune cell analysis of 8 weeks, samples could not be collected and ran the same day so frequencies were normalized across treatment group at each timepoint using the following equation: raw frequency / (average treatment frequency of specific run 1 / average treatment frequency of specific run 2). […]

[1] = system: CD206, YM1, TGFb, TNF, CB2 gene expression; assay: qPCR of immune markers in frontal cortex and PBMCs; assay type: in vivo; conditions: rat low cohort
Procedure: as §1
Total RNA was extracted from the frontal cortex and from PBMCs of low cohort animals and standardized across all samples and groups. In short, tissue was suspended in Trizol and homogenized with a TissueLyser (Retsch). Homogenate was incubated with chloroform and RNA separated by centrifugation of […] for 15 min at 4°C. RNA was further isolated with a RNAeasy mini kit (Qiagen). The RNA (1 µg) was then reverse transcribed to cDNA and analyzed with primers (Integrated DNA Technologies) for pro-inflammatory and anti-inflammatory immune markers and CB2 (Table 1) by qRT-PCR using protocols previously published. Resulting threshold cycle (Ct) values were analyzed by the 2-ΔΔCt method using the AAV2/5-hαsyn + vehicle as the control group and normalized to GAPDH for PBMCs and HPRT1 for frontal cortex as the housekeeping genes.

[2] = system: deep cervical lymph nodes (DCLN) and splenocytes; assay: Flow cytometry of deep cervical lymph nodes and splenocytes (high cohort); assay type: in vivo, rat; conditions: 8-week endpoint
RAW264.7 macrophages = assay: Phagocytosis assay with pHrodo green E. coli bioparticles; assay type: cell-based; conditions: vs vehicle; for integrated density of GFP (phagocytosis of E. coli bioparticles): 100ng/mL LPS; for phagocytosis of E. coli bioparticles: 1 μg/mL LPS
Procedure: The RAW264.7 macrophage cells (ATCC Cat# TIB-71, RRID: CVCL_0493) were grown in sterile media which consisted of DMEM high glucose, 10% FBS, 2mM L-glutamine, 1x Pen-strep and 1x sodium pyruvate in a humidified 5% CO2 incubator at 37°C. RAW264.7 were maintained in […] tissue culture flasks and plated at a density of 1 × 10^4 cells in triplicate in 96-well plates for assays. Cells were stimulated with either lipopolysaccharide (LPS O111:B4; Sigma Cat#L2630) at 100ng/mL or 1000ng/mL (750EU/mL or 7500 EU/mL, respectively). One hour prior to this stimulation the cells were pre-treated with the CB2 inverse agonist SMM-189 at 3μM or 7 μm or its vehicle. Specifically for cell culture experiments, SMM-189 was formulated with 40% ethanol (v/v), 20% tween-20 (v/v) and 40% saline (v/v). A phagocytosis assay was conducted 24 h after LPS.
The phagocytosis assay was performed using pHrodo green E. coli bioparticles (Invitrogen Cat# P35366) according to the manufacturer’s instructions. Five images per well were then collected every 30 min for 24 h on an EVOS M7000 microscope (Invitrogen, ThermoFisher Scientific). The cells were maintained for this duration using an on-stage incubator kept at 37°C and 5% CO2. Analysis of the collected images was performed using EVOS Celleste software (version 5.0), which counted the cells and then measured the integrated optical density of fluorescence within each well over the 24-hour time course. Analysis was conducted on the average integrated optical density across triplicate wells. Results were consistent across duplicate experimental replicates.

[3] = frontal cortex, relative to vehicle

## O=C(c1ccccc1)c1cc(O)c(-c2cc(Cl)cc(Cl)c2)c(O)c1 [SMM-189]
PBMCs; 4 weeks, vs control
  MHCII MFI on CD43-His48+ classical monocytes: increased
PBMCs; 8 weeks compared to own baseline
  frequencies of Tregs (CD4+Foxp3+; CD4+Foxp3+CD25+): elevated
PBMCs; 8 weeks, vs vehicle
  granulocytes: decreases
  wound-healing non-classical monocytes (CD43+): increases
PBMCs; between treatments
  Lymphocyte frequencies of CD4 or CD8 populations (or the CD4 to CD8 ratio): did not reveal significant differences
PBMCs; vs vehicle
  counts of both CD4 and CD8+ T cells: decreased
PBMCs; weeks 4 and 8, vs vehicle
  circulating classically-activated monocytes (CD43-His48+): reduced
[1]; PBMCs, relative to vehicle
  TGFβ gene expression: increased
[1]; endpoint PBMCs, relative to vehicle
  TNF transcript: decreased
[1]; frontal cortex and PBMCs, between groups
  CB2 gene expression: not different
[1]; [3]
  CD206 gene expression: increased
  YM1 gene expression: increased
[2]
  DCLN myeloid populations including classical CD43-His48+ or CD11b+ monocytes: No frequency difference
  Tregs (foxp3+CD4+) in DCLN: significant reduction
[2]; p = 0.0503
  CD4 to CD8 lymphocyte ratio in DCLN: trend was found in the CD4 to CD8 lymphocyte ratio to be decreased
[2]; p = 0.0541
  CD11b+ myeloid splenocytes: trend to increase
[2]; p = 0.0962
  CD4 to CD8 lymphocyte ratio in spleen: no effect; also recorded: trend was found in the CD4 to CD8 lymphocyte ratio to be decreased
RAW264.7 macrophages; pre-treatment 3 μm, p = 0.0024
  integrated density of GFP (phagocytosis of E. coli bioparticles): significantly increased
RAW264.7 macrophages; pre-treatment 7 μm, p < 0.0001
  integrated density of GFP (phagocytosis of E. coli bioparticles): significantly increased
RAW264.7 macrophages; 3 μm
  phagocytosis of E. coli bioparticles: intensified
RAW264.7 macrophages; 7 μm
  phagocytosis of E. coli bioparticles: intensified
